# Assay results from patent EP2236138A1 (priority 2009, dated 2010).
# Experiments:
# Alpha2A = molecular target: T1, Alpha2A (Homo sapiens, UniProt P08913); experiment: pKi values of test compounds, Alpha2A (Table 1); format: binding
# T1 sequence (P08913 1-465): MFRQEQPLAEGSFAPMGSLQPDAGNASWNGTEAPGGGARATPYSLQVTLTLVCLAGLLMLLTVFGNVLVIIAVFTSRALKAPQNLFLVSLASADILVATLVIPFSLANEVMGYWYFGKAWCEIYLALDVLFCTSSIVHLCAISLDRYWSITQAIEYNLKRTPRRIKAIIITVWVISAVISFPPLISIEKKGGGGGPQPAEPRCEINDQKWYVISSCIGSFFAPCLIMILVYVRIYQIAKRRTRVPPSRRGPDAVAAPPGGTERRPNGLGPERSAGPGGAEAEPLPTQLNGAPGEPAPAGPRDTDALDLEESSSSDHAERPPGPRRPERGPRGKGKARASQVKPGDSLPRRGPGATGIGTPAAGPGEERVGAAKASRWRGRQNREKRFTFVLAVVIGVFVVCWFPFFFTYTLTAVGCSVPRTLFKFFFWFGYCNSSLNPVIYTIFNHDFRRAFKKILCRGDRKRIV
# 5HT1B = 5HT1B (Homo sapiens, UniProt P28222); experiment: biochemical; format: binding
# Chain of 5HT1B (P28222 whole entry): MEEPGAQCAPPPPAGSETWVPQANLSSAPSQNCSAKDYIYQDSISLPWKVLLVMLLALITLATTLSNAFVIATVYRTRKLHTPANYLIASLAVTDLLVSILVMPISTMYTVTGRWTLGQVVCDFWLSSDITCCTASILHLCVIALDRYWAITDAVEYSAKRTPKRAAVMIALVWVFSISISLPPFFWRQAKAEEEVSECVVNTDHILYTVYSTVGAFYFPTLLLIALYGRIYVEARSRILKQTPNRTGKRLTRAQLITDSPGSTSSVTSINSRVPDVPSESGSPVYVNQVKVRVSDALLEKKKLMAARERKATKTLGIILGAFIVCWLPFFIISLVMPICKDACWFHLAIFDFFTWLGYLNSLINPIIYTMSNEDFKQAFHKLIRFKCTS
# 5HT2B = 5HT2B (Homo sapiens, UniProt P41595); experiment: pKi values of test compounds, 5HT2B (Table 1); format: binding
# Chain of 5HT2B (P41595 whole entry): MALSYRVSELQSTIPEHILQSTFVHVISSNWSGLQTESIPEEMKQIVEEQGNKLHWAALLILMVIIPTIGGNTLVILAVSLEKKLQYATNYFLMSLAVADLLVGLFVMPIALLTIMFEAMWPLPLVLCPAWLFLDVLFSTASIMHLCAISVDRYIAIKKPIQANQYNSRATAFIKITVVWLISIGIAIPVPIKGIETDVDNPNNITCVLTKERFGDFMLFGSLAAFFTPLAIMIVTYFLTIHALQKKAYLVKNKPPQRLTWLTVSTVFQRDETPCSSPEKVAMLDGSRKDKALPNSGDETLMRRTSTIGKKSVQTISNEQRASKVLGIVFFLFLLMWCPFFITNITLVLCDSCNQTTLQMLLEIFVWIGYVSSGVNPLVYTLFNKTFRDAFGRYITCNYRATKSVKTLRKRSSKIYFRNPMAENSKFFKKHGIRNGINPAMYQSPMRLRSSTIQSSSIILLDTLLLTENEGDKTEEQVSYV
# 5HT1D = 5HT1D (Homo sapiens, UniProt P28221); experiment: biochemical; format: binding
# Chain of 5HT1D (P28221 whole entry): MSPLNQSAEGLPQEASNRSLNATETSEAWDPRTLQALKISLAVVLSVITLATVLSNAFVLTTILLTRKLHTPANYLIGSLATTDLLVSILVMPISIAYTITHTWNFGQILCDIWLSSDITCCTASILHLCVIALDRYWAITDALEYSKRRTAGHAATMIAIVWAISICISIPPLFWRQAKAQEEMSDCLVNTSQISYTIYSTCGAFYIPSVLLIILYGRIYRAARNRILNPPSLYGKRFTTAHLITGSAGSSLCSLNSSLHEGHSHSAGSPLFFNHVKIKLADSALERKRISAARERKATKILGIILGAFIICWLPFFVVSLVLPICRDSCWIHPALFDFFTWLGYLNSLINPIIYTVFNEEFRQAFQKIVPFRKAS
# D3 = D3 (Homo sapiens, UniProt P35462); experiment: biochemical; format: binding
# Chain of D3 (P35462 whole entry): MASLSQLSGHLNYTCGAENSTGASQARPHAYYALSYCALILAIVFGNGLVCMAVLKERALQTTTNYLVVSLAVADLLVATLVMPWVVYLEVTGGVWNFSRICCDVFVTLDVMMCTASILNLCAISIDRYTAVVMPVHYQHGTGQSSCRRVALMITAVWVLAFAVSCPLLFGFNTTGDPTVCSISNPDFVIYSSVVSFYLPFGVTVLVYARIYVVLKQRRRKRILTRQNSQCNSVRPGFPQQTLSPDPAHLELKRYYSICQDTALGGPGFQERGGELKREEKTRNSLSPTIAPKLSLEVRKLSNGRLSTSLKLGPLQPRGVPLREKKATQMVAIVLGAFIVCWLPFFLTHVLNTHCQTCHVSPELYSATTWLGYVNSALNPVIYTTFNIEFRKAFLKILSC
# other dopamine receptors = experiment: pKi value towards other dopamine receptors; format: binding
# other 5HT receptors = experiment: pKi value towards other 5HT receptors; format: binding
# [1] = test system: patients with major depression; experiment: Semi-naturalistic open label study of combo pipamperone-citalopram in major depression; format: in vivo
# Source text: Design: Semi-naturalistic i.e. inclusion of every 'natural' patient in an outpatient practice but without concomitant use of mood enhancing drugs, open label
# Phase: Phase Ila - preliminary Proof of Concept
# Location: Belgium - Research Centre ANIMA, Alken
# End Points : Assessment scale scores, Hamilton Depression Rating Scale 17 items, Reduction, Response, Remission
# Medication: Exclusion of mood stabilisers, antipsychotics (typical and atypical) and other antidepressants […]
# Adverse events are assessed on: body as a whole, central and peripheral nervous system, gastrointestinal, musculoskeletal, psychiatric, respiratory, skin and appendages, vascular and urinary, taking into account discontinued treatment due to adverse events. Laboratory parameters, ECG, bodyweight and vital signs are not measured since this is a naturalistic study.
# D2 = D2 (Homo sapiens, UniProt P14416); format: binding
# Chain of D2 (P14416 whole entry): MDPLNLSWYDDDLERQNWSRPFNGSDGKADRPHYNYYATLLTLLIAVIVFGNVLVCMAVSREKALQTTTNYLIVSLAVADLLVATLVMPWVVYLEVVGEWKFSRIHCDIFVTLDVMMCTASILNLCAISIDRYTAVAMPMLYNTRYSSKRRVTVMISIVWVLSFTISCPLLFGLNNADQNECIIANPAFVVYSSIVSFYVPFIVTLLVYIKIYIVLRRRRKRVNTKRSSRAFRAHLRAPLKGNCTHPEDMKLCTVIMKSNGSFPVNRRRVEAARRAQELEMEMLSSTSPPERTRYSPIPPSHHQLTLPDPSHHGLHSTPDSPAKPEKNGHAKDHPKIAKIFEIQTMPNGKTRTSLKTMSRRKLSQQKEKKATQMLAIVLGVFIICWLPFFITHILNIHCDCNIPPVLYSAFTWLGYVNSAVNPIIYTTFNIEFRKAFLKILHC
# Beta1 = Beta1 (Homo sapiens, UniProt P08588); experiment: pKi values of test compounds, Beta1 (Table 1); format: binding
# Chain of Beta1 (P08588 whole entry): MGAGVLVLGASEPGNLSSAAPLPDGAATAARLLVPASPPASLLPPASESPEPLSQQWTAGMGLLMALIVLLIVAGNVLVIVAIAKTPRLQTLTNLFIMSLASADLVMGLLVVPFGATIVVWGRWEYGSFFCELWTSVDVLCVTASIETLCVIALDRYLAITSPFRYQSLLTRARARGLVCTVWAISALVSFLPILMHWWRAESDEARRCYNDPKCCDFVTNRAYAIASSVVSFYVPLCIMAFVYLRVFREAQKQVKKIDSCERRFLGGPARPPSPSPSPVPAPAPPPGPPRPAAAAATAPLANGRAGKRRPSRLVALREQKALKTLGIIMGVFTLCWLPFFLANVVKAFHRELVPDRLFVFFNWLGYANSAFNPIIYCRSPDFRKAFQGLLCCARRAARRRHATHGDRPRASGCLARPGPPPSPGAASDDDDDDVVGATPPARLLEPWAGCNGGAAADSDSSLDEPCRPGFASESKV
# 5HT2C = molecular target: T2, 5HT2C (Homo sapiens, UniProt P28335); format: binding
# T2 sequence (P28335 33-458): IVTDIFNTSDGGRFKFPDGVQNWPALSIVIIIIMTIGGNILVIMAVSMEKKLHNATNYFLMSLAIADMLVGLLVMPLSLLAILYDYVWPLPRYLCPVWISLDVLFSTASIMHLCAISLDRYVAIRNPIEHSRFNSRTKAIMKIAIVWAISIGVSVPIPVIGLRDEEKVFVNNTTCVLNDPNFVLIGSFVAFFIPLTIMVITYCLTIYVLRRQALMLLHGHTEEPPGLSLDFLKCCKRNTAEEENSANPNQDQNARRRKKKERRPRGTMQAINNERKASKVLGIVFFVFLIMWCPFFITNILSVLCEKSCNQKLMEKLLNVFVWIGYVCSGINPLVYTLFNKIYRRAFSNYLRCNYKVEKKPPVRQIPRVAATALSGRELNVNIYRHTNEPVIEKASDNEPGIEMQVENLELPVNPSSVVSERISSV
# 5HT6rat = 5HT6rat (Rattus norvegicus, UniProt P31388); experiment: pKi values of test compounds, 5HT6 rat (Table 1); format: binding
# Chain of 5HT6rat (P31388 whole entry): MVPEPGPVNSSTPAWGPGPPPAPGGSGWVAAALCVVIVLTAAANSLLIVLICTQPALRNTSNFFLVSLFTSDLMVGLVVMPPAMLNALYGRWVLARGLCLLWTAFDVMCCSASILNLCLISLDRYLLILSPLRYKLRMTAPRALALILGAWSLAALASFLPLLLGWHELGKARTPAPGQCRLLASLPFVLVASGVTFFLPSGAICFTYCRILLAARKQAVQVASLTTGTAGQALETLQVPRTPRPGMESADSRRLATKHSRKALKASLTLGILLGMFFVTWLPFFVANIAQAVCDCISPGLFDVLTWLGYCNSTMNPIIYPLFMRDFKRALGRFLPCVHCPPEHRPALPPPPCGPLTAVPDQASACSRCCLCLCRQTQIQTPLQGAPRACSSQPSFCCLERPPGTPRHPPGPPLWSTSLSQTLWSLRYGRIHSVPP
# Beta2 = Beta2 (Homo sapiens, UniProt P07550); experiment: pKi values of test compounds, Beta2 (Table 1); format: binding
# Chain of Beta2 (P07550 whole entry): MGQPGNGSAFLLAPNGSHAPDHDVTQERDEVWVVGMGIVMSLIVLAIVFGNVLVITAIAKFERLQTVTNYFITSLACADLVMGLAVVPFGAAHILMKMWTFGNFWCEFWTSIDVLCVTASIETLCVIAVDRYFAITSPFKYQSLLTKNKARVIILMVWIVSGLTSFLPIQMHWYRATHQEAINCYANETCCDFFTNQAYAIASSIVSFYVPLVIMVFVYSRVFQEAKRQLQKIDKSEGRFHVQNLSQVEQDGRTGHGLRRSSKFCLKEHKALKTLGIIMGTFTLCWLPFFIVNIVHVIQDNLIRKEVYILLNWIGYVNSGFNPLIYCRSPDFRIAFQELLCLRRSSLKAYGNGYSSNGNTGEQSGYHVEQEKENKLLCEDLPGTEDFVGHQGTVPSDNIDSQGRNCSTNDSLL
# Alpha1A = molecular target: T3, Alpha1A (Homo sapiens, UniProt P35348); format: binding
# T3 sequence (P35348 1-466): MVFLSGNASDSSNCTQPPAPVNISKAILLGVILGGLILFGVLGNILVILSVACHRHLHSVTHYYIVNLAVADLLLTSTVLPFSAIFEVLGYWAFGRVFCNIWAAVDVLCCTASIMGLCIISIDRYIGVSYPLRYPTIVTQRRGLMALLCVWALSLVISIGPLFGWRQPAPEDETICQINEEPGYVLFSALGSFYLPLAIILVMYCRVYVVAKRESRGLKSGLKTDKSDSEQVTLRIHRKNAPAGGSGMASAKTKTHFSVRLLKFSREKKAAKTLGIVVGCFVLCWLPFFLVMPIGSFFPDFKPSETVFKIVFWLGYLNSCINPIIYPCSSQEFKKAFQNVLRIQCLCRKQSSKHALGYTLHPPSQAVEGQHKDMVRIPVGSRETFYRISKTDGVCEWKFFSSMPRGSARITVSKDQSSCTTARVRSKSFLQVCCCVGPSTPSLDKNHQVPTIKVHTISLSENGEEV
# 5HT1A = molecular target: T4, 5HT1A (Homo sapiens, UniProt P08908); format: binding
# T4 sequence (P08908 1-422): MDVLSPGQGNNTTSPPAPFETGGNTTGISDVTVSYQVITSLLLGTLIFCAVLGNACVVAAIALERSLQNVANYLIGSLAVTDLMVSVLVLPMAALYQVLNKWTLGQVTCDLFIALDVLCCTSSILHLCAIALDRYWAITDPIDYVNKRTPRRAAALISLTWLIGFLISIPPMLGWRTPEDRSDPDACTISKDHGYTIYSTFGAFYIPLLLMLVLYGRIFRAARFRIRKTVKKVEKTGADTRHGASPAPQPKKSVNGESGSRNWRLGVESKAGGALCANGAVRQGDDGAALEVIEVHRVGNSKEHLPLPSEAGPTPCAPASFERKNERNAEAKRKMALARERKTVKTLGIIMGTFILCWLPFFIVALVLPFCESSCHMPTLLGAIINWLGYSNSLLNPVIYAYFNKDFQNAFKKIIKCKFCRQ
# D1 = D1 (Homo sapiens, UniProt P21728); format: binding
# Chain of D1 (P21728 whole entry): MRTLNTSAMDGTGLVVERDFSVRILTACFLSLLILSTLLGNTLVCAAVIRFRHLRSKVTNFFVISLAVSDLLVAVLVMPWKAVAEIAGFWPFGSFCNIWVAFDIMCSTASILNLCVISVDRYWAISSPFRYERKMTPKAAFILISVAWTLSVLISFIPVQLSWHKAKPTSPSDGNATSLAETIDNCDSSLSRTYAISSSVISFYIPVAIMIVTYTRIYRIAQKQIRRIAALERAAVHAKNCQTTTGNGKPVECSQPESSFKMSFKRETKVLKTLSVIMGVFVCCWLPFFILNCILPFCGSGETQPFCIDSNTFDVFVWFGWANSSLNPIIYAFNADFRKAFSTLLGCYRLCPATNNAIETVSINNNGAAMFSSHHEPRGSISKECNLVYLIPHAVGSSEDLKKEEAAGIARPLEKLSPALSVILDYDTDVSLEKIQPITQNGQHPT
compound,measurement,setting,value
OC1(c2ccc(Cl)cc2)CCN(Cc2c[nH]c3ccccc23)CC1 [L741626],Ki,Alpha2A,> 1000 nM
same,Ki,5HT1B; read-out: pKi 5HT1B (converted),> 1000 nM
same,Ki,5HT2B,100 to 1000 nM
same,Ki,5HT1D,> 1000 nM
same,Ki,D3,10 to 100 nM
"NC(=O)C1(N2CCCCC2)CCN(CCCC(=O)c2ccc(F)cc2)CC1 [Pipamperon, 1'-[3-(p-Fluorobenzoyl)propyl]-[1,4'-bipiperidine]-4'-carboxamide]",pKi value towards other dopamine receptors,other dopamine receptors,less than 8
same,pKi value towards other 5HT receptors,other 5HT receptors,less than 8
same,Sedative effects of pipamperone,"[1]; major depression study, pipamperone 2-4 mg/day",lacking
same,"boosting effect of pipamperone on a SSRI, in this case citalopram","[1]; major depression, pipamperone 2-4 mg/day + citalopram 20-40 mg/day PO, 8 weeks",apparent
O=C(C[C@H]1CCN(CCOc2cccc3c2OCCO3)C1)c1ccc(F)cc1 [S16924],pKi D2,D2,7-8
same,pKi Beta1,Beta1,<6
same,pKi 5HT2C,5HT2C,<6
same,pKi 5HT6rat,5HT6rat,6-7
same,pKi D3,D3,7-8
same,pKi Beta2,Beta2,<6
N#Cc1ccc2c(c1)[C@H]1CN(CCCCNC(=O)c3ccc(-c4ccccc4)cc3)C[C@@H]1CO2 [S33084],pKi Alpha2A,Alpha2A,<6
same,pKi D2,D2,7-8
same,pKi 5HT2C,5HT2C,7-8
same,pKi Alpha1A,Alpha1A,6-7
same,pKi 5HT1B,5HT1B,6-7
same,pKi 5HT2B,5HT2B,6-7
same,pKi 5HT1A,5HT1A,<6
same,pKi 5HT1D,5HT1D,6-7
same,pKi D1,D1,6-7
